Source: patent publication US11897865B2, “ABHD12 inhibitors and methods of making and using same” (THE SCRIPPS RESEARCH INSTITUTE, priority 2018, dated 2024)

Legend:
[1] = biological target: T1, ABHD12 (Homo sapiens, UniProt Q8N2K0); experiment: Lyso-PS hydrolysis assay (substrate-based), ABHD12-overexpressing HEK293T membrane lysate; format: biochemical; conditions: 17:1 lyso-PS substrate; ABHD12-overexpressed HEK lysate; read-out: IC50 (Substrate-based assay_ABHD12-overexpressed HEK lysate)
T1 construct: expressed in transfected cells; host or cells: HEK293T
T1 sequence (Q8N2K0 1-398): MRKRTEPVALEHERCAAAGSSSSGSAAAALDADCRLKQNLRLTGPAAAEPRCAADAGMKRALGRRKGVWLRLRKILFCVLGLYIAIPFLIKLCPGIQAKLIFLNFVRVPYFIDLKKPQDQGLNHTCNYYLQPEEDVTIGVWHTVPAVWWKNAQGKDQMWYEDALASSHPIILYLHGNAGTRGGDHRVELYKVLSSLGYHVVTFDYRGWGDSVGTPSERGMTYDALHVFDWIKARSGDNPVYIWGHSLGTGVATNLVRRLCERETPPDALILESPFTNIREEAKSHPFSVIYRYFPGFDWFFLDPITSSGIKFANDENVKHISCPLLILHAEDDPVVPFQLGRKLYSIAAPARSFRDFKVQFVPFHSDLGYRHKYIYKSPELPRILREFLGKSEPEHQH
Procedure: Lyso-PS Hydrolysis Assay:
The lyso-PS lipase activity of ABHD12 was determined as previously described (Blankman, J. L., Long, J. Z., Trauger, S. A., Siuzdak, G. & Cravatt, B. F. ABHD12 controls brain lysophosphatidylserine pathways that are deregulated in a murine model of the neurodegenerative disease PHARC. Proc. Natl. Acad. Sci. U. S. A. 110, 1500-1505, doi:10.1073/pnas.1217121110 (2013)) with some minor modifications. The proteome concentrations were adjusted to 0.25 mg/mL (ABHD12-overexpressing HEK293T membrane) or 0.5 mg/mL (mouse brain membrane) in Dulbecco's phosphate-buffered saline (DPBS) (80 μL/reaction). 20 μL of 500 μM 17:1 lyso-PS in DPBS was added to each reaction (100 μM final concentration) and incubated at 37° C. After 30 min, the reaction was quenched with 400 μL of 2:1 CHCl3/MeOH (v/v) with 1 nmol 15:0 FFA as an internal standard. The mixture was vortexed and centrifuged at 1,400× g to separate the aqueous and organic phase. The organic phase was analyzed by LC-MS (1200 LC/MSD, Agilent Technologies). The separation of the analyte was achieved using a 50 mm×4.6 mm 5 μm Gemini C18 column (Phenomenex) coupled to a guard column (Gemini: C18: 4×3 mm). The LC solvents were as follows: buffer A, […] (95:5, v/v) with 0.1% NH4OH (v/v); and buffer B, iPrOH:MeOH:H2O (60:3 5:5, v/v/v) with 0.1% NH4OH (v/v). The LC method consisted of 0.1 mL/min 20% buffer B for 1.0 min, 0.4 ml/min isocratic mode of 100% buffer B over 7 min and equilibration with 0.5 mL/min 100% buffer A for 3 min. The MS analyses were performed using an electrospray ionization source (ESI) in negative ion mode to measure product formation. MS data were acquired in selected ion monitoring mode at m/z 267.20 for 17:1 FFA and m/z 241.20 for 15:0 FFA.

[2] = biological target: T2, ABHD12 (Mus musculus, UniProt Q99LR1); experiment: Gel-based competitive ABPP, JJH350 probe vs brain membrane proteome; format: biochemical; conditions: for IC50: read-out: IC50 (ABPP gel_JJH350 probe vs brain mem); for inhibition at 10 µM: 10 μM compound, read-out: % Inhibition @ 10 μM (ABPP gel_JJH350 probe vs brain mem)
T2 construct: from tissue; host or cells: brain membrane proteome
T2 sequence (Q99LR1 1-398): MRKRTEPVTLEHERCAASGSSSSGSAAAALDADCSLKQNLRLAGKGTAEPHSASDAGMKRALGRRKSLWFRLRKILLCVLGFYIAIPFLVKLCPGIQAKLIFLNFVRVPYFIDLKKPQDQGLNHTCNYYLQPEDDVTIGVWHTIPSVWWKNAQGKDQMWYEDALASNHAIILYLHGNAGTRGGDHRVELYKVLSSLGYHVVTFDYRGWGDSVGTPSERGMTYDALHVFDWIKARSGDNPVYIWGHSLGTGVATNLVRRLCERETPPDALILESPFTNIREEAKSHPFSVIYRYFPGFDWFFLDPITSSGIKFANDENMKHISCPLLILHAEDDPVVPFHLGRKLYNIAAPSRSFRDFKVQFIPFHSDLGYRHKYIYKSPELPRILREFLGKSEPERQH
Procedure: Gel-Based Competitive ABPP for In Vitro Inhibitor Treatment of Proteomes:
Gel-based ABPP assays were performed as previously reported (Bachovchin, D. A. et al. Superfamily-wide portrait of serine hydrolase inhibition achieved by library-versus-library screening. Proc. Natl. Acad. Sci. U. S. A. 2010, 107, 20941-20946). Cell or tissue proteomes (50 μL, 1 mg/mL) were treated with either FP-Rh (1 μM final concentration) or JJH350 (2 μM final concentration) for 45 min at 37° C. For FP-Rh labeled samples, the reactions were quenched by adding 20 μL of 4× SDS-PAGE loading buffer. The 30 μL of the quenched samples were loaded on gel for analysis. For (S)-1,3-dioxo-7-(4-phenoxybenzoyl)hexahydroimidazo[1,5-a]pyrazin-2(3H)-yl 4-(4-(prop-2-yn-1-yloxy)phenyl)piperazine-1-carboxylate (JJH350)-labeled samples, copper-catalyzed azide-alkyne cycloaddition (CuAAC) was used for visualizing the labeled proteins following the reported protocol. Briefly, rhodamine-PEG3-N3 (1 μL/reaction, 1.25 mM in DMSO), CuSO4 (1 μL/reaction, 50 mM in H2O), TBTA (3 μL/reaction, 1.7 mM in DMSO/t-BuOH [1:4, v/v]) and tris(2-carboxyethyi)phosphine (TCEP) (1 μL/reaction, 50 mM in H2O, freshly prepared) were premixed. 6 μL of this click reagent mixture was immediately added to each JJH350-labeled samples (50 μL, 1 mg/mL) and incubated for 1 h at room temperature. The reactions were quenched by adding 20 μL of 4× SDS-PAGE loading buffer. The 40 μL of the quenched samples were loaded on a gel for analysis.
After separation by SDS-PAGE (10% acrylamide), samples were visualized by in-gel fluorescence scanning using the ChemiDoc MP system (Bio-Rad). Band intensities were quantified using the Image Lab (5.2.1) software (Bio-Rad).

Row | SMILES | IC50 [1] [nM] | IC50 [2] [nM] | inhibition at 10 µM [2] [%]
1 | COc1ccc(Oc2ccnc(N3CCC(NC(=S)Nc4cccnc4)CC3)c2)cc1 [Example 74, 1-(1-(4-(4-Methoxyphenoxy)pyridin-2-yl)piperidin-4-yl)-3-(pyridin-3-yl)thiourea] | 1000 to 25000 | 1000 to 25000 | –
2 | FC(F)(F)c1ccnc(N2CCC(NC(=S)Nc3cccnc3)CC2)c1Cl [Example 26, 1-(1-(3-Chloro-4-(trifluoromethyl)pyridin-2-yl)piperidin-4-yl)-3-(pyridin-3-yl)thiourea] | 100 to 1000 | 100 to 1000 | ≥ 75
3 | FC(F)(F)Oc1ccc(Oc2ccnc(N3CCC(NC(=S)Nc4cccnc4)CC3)c2Cl)cc1 [Example 3, 1-(1-(3-chloro-4-(4-(trifluoromethoxy)phenoxy)pyridin-2-yl)piperidin-4-yl)-3-(pyridin-3-yl)thiourea] | ≤ 100 | ≤ 100 | ≥ 75
4 | FC(F)(F)c1ccc(Oc2ccnc(N3CCC(NC(=S)Nc4cccnc4)CC3)c2)cc1 [Example 51, 1-(Pyridin-3-yl)-3-(1-(4-(4-(trifluoromethyl)phenoxy)pyridin-2-yl)piperidin-4-yl)thiourea] | 100 to 1000 | 100 to 1000 | ≥ 75
5 | C#Cc1ccc(Oc2ccnc(N3CCC(NC(=S)Nc4cccnc4)CC3)c2Cl)c(Cl)c1 [Example 5, 1-(1-(3-Chloro-4-(2-chloro-4-ethynylphenoxy)pyridin-2-yl)piperidin-4-yl)-3-(pyridin-3-yl)thiourea] | ≤ 100 | – | –
6 | Fc1ccc(COc2ccnc(N3CCC(NC(=S)Nc4cccnc4)CC3)c2)cc1 [Example 38, 1-(1-(4-((4-Fluorobenzyl)oxy)pyridin-2-yl)piperidin-4-yl)-3-(pyridin-3-yl)thiourea] | – | – | ≥ 75
7 | FC(F)(F)c1cnc(N2[C@@H]3CC[C@H]2CC(NC(=S)Nc2cccnc2)C3)c(Cl)c1 (stereo partly drawn) [Example 85, 1-((1R,5S)-8-(3-Chloro-5-(trifluoromethyl)pyridin-2-yl)-8-azabicyclo[3.2.1]octan-3-yl)-3-(pyridin-3-yl)thiourea] | – | – | 50 to 75
8 | O=C(Nc1cccnc1)NC1CCN(c2nccc(Oc3ccc(OC(F)(F)F)cc3Cl)c2Cl)CC1 [Example 6, 1-(1-(3-Chloro-4-(2-chloro-4-(trifluoromethoxy)phenoxy)pyridin-2-yl)piperidin-4-yl)-3-(pyridin-3-yl)urea] | – | 100 to 1000 | –
9 | Fc1ccc(-c2ccnc(N3CCC(NC(=S)Nc4cccnc4)CC3)c2)cc1F [Example 48, 1-(1-(4-(3,4-Difluorophenyl)pyridin-2-yl)piperidin-4-yl)-3-(pyridin-3-yl)thiourea] | – | – | ≥ 75
10 | S=C(Nc1cccnc1)NC1CCN(c2cc(OC3CCCCC3)ccn2)CC1 [Example 30, 1-(1-(4-(Cyclohexyloxy)pyridin-2-yl)piperidin-4-yl)-3-(pyridin-3-yl)thiourea] | – | 1000 to 25000 | ≥ 75
11 | FC(F)(F)c1cnc(N2CCC(NC(=S)Nc3cccnc3)CC2)nc1 [Example 78, 1-(Pyridin-3-yl)-3-(1-(5-(trifluoromethyl)pyrimidin-2-yl)piperidin-4-yl)thiourea] | – | – | 50 to 75
12 | Fc1ccc(Oc2ccnc(N3CCC(NC(=S)Nc4cccnc4)CC3)c2Cl)cc1OC(F)(F)F [Example 68, 1-(1-(3-Chloro-4-(4-fluoro-3-(trifluoromethoxy)phenoxy)pyridin-2-yl)piperidin-4-yl)-3-(pyridin-3-yl)thiourea] | – | ≤ 100 | –
13 | FC(F)(F)c1cnc(NCCCCNC(=S)Nc2cccnc2)c(Cl)c1 [Example 83, 1-(4-((3-Chloro-5-(trifluoromethyl)pyridin-2-yl)amino)butyl)-3-(pyridin-3-yl)thiourea] | – | – | 25 to 50
14 | FC(F)(F)Oc1ccc(-c2ccnc(N3CCC(NC(=S)Nc4cccnc4)CC3)c2)cc1 [Example 22, 1-(Pyridin-3-yl)-3-(1-(4-(4-(trifluoromethoxy)phenyl)pyridin-2-yl)piperidin-4-yl)thiourea] | – | – | ≥ 75
15 | Cc1cc(F)ccc1Oc1ccnc(N2CCC(NC(=S)Nc3cccnc3)CC2)c1Cl [Example 69, 1-(1-(3-Chloro-4-(4-fluoro-2-methylphenoxy)pyridin-2-yl)piperidin-4-yl)-3-(pyridin-3-yl)thiourea] | – | 100 to 1000 | –
16 | Cc1cnc(N2CCC(NC(=S)Nc3cccnc3)CC2)c(Cl)c1 [Example 8, 1-(1-(3-Chloro-5-methylpyridin-2-yl)piperidin-4-yl)-3-(pyridin-3-yl)thiourea] | – | – | ≥ 75
17 | FC(F)COc1ccnc(N2CCC(NC(=S)Nc3cccnc3)CC2)c1 [Example 32, 1-(1-(4-(2,2-Difluoroethoxy)pyridin-2-yl)piperidin-4-yl)-3-(pyridin-3-yl)thiourea] | – | – | 50 to 75
18 | FC(F)(F)Oc1cccc(Oc2ccnc(N3CCC(NC(=S)Nc4cccnc4)CC3)c2)c1 [Example 49, 1-(Pyridin-3-yl)-3-(1-(4-(3-(trifluoromethoxy)phenoxy)pyridin-2-yl)piperidin-4-yl)thiourea] | – | – | ≥ 75
19 | FC(F)(F)c1cccc(Oc2ccnc(N3CCC(NC(=S)Nc4cccnc4)CC3)c2)c1 [Example 52, 1-(Pyridin-3-yl)-3-(1-(4-(3-(trifluoromethyl)phenoxy)pyridin-2-yl)piperidin-4-yl)thiourea] | – | – | ≥ 75
20 | CC(=O)c1ccnc(N2CCC(NC(=S)Nc3cccnc3)CC2)c1 [Example 76, 1-(1-(4-Acetylpyridin-2-yl)piperidin-4-yl)-3-(pyridin-3-yl)thiourea] | – | 1000 to 25000 | 25 to 50
21 | FC(F)(F)Oc1ccc(COc2ccnc(N3CCC(NC(=S)Nc4cccnc4)CC3)c2)cc1 [Example 39, 1-(Pyridin-3-yl)-3-(1-(4-((4-(trifluoromethoxy)benzyl)oxy)pyridin-2-yl)piperidin-4-yl)thiourea] | – | – | ≥ 75
